The values below come from US20210052580A1 (ST IP Holding AG, priority 2018, published 2021).

In data set [1] the test system is primary human gingival epithelial cells (HGEPp). As to the kind of experiment: TACS MTT cell viability assay, H2O2-induced oxidative stress. The class given is cell-based. A general note: Tetrazolium assays rely on reduction of a dye to a coloured formazan, in cell work by metabolically active cells.
Procedure: Pooled primary HGEPps were propagated in CnT-Prime epithelial culture medium provided by CellnTec on 100 mm petri dishes coated with 30 mg/ml Type I rat tail collagen (BD Biosciences) diluted in Dulbecco's phosphate-buffered saline (DPBS). […] The cells were harvested when they reached 70-90% confluency as observed by light microscopy. For routine cultivation, the medium was changed every 3 days. For both the cell viability and ROS assays, the cells from passages 3-7 were seeded at 5×10 3, 2.5×10 4, 5×10^4 cells/cm 2 density to grow cell monolayers in 24-well flat-bottomed tissue culture plates and acclimated overnight at 37° C.
Preparation of Dosing Solutions • 1. Recrystallized oltipraz was received as a powder from Supportive Therapeutics and a 100 mM DMSO stock was prepared. Further dilutions were prepared in DMSO from the 100 mM DMSO stock and each DMSO dilution was then added into 10 mL of Dulbecco's phosphate-buffered saline to arrive at final concentrations of 10, 50, and 100 μM. • 2. The Normal (Control) group contained saline with the same percentage of DMSO as the treated group. • 3. All dosing solutions contained 0.3% of DMSO which is well below the maximum tolerated DMSO percent of 0.8% for HGEPp cells. • 4. Formulated oltipraz crystals and control powder were received as a powder and a 500 mM DMSO stock solution was prepared for each powder. • 5.
Cell Survival Assay (TACS MTT Kit) • 1. Plate cell concentration was selected to be 6.25×10^5/ml to yield an OD absorbance within the linear portion of the control curve. • 2. Once the HGEPp cells were cultured and ready on the microplate, the media was removed from all the wells and discarded. The cells were washed gently with DPBS 2-3 times and the last wash removed and discarded. • 3. Added 10 ul of MTT reagent to each well. • 4. Incubated the plate for 6 hours at 37° C. Viewed the cells to confirm the appearance of intracellular precipitate using an inverted microscope. • 5. Added 100 ul of Detergent Reagent to all wells, including the control wells taking care not to shake the plates • 6. Left the plate covered in the dark at room temperature overnight. • 7. Removed the plate cover and measured the absorbance of the wells, including the blanks at 570 nm. • 8. Determined the average values from triplicate readings after subtracting the average value for the blanks.
HGEPp cells were exposed to different concentrations of H2O2 for 4 h to examine H2O2-induced oxidative stress. The cells were exposed to 0-0.6 mM H2O2 for 4 h and cell viability was evaluated using the TACS MTT Cell Proliferation Assay Kit. The percentage of cell survival was determined using the ratio of the optical density (OD) of the test sample to the OD of the control×100%. […] The data is mean+/−SD of 3 experiments in 6 replicate wells.
Normal control cells were cultured in DPBS containing 0.3% DMSO. Positive Control (PC): oxidative stressed group cells after treatment with 0.3 mM H2O2 for 4 h. […] The percentage of cell survival was determined by the ratio of the optical density (OD) of the test samples to the OD of the control×100%.
Pooled primary HGEPp's were propagated in CnT-Prime epithelial culture medium provided by CellnTec on 100 mm petri dishes coated with 30 mg/ml Type I rat tail collagen (BD Biosciences) diluted in Dulbecco's phosphate-buffered saline (DPBS). […] The cells were harvested when they reached 70-90% confluency as observed by light microscopy. For routine cultivation, the medium was changed every 3 days.
Data set [2] shares this test system. As to the kind of experiment: OxiSelect intracellular ROS assay, H2O2-treated cells. Format: cell-based.
Source text: 2. measure the effect of recrystallized oltipraz and formulated oltipraz on hydroxyl, peroxyl and other reactive oxygen species within HGEPp cells, using Cell Biolabs' OxiSelect™ Intracellular ROS Assay Kit. This assay employs the cell-permeable fluorogenic probe 2′,7′-dichlorodihydrofluorescin diacetate (DCFH-DA) which diffuses into cells and is deacetylated by cellular esterases to a nonfluorescent DCFH which is then rapidly oxidized to highly fluorescent 2′,7′-dichlorodihydrofluorescein (DCF) by ROS.
Prepared and mixed all reagents thoroughly before use. […] Once the HGEPp cells were cultured and ready on a microplate, the media was removed from all the wells and discarded. Washed the cells gently with DPBS 2-3 times. Removed the last wash and discarded it. • 3. Added 100 μL of 1×DCFH-DA/media solution to the cells. […] Fluorescence was read on a Fluorescence Plate Reader after 1 hour. […] Transferred 150 μL of the mixture to a fresh 24-well plate for fluorescence measurements at 530 nm. […]
Intracellular ROS was measured using a Spectramax M3 microplate reader.
Prepared and mixed all reagents thoroughly before use. […] Once the HGEPp cells were cultured and ready on a microplate, the media was removed from all the wells and discarded. […] Transferred 150 μL of the mixture to a fresh 24-well plate for fluorescence measurements at 530 nm.
Intracellular ROS was measured using a Spectramax M3 microplate reader. […]
In data set [3] the test system is male Syrian Golden Hamsters. How it is done:
Twenty-four (24) male Syrian Golden Hamsters were used in the study. Mucositis was induced by giving an acute radiation dose of 40 Gy directed to the left buccal cheek pouch on Day 0. Mucositis was evaluated clinically starting on Day 6 and continuing on alternate days until Day 28.
Mucositis was scored visually by comparison to a validated photographic scale, ranging from 0 for normal, to 5 for severe ulceration (clinical scoring). In descriptive terms, this scale is defined as described in Table 7 below: […]
A mucositis score of 3 or greater indicates ulcerative mucositis, a clinically significant threshold.
Statistical significance of observed differences was calculated using chi-squared analysis.
An analysis of the severity of mucositis was performed using the Mann-Whitney rank sum analysis to compare the visual mucositis scores for Groups 2 and 3 to the vehicle control group (Group 1) on each day of the analysis. In this analysis, 2 consecutive days of significant reduction in the mucositis score are generally required before it is regarded as clinically meaningful.
The significance of group differences observed in daily mucositis scores was determined using the Mann-Whitney rank sum test. This nonparametric statistic is appropriate for the visual mucositis scoring scale. The p-values for each calculation are shown. “x” denotes significant difference in mucositis scores. “y” denotes increase in comparison to vehicle Group (improvement). “z” denotes decrease.
“y” denotes an increase in comparison to vehicle Group, “z” denotes decrease (improvement).

Data set [4] is described as follows: physchem. As to conditions: 20 °C, thermodynamic from solid.
Data set [5] concerns rat cortical neurons. Format: cell-based. As to conditions: MK801 10 μM. On the procedure:
The objective of the experiments in this Example was to explore the protective effects of three compounds in the neurotoxicity induced by oxygen glucose deprivation. A multiparametric cell-based protocol is used in this Example in order to determine the mechanisms of action. The assay was applied to “freshly isolated” rat cortical neurons cultured in 96-well-plates and exposed to the compounds at 100 μg/ml. Moreover, some cells were treated with the compounds in addition with atovaquone (100 μg/ml).
In vitro ischemic injury was induced in rat primary neuronal culture by oxygen-glucose deprivation for 2 hours. Neurons were incubated with the compounds during 1 hour eighteen hours prior to the OGD induction. MK801 10 μM was used as positive neuroprotection control. After the treatments, supernatants were collected for measuring extracellular LDH levels (plasma membrane integrity determination) and cells were simultaneously incubated with three optically compatible fluorescent dyes, and subsequently analyzed with BD Pathway 855 (Becton Dickinson). Cell parameters associated with nuclear morphology, mitochondrial damage and caspase 3/7 activation-indicative of prelethal cytotoxic effects and representative of different mechanism of toxicity-were measured by HCS at single cell level. Finally, cells were fixed and stained with beta III tubulin antibody for measuring the neurite outgrowth.
Primary cultures of cortical neurons were isolated from cerebral cortices of Sprague-Dawley rat foetuses at embryonic day 18. Brains were removed and after removing the meninges, the tissues were dissected under a binocular microscope. Neurons were enzymatically dispersed by trypsin 0.2% and DNAse […] digestion for 10 min at 37° C., plated in poly-L-lysine wells and incubated with B27 supplemented neurobasal medium.
Cortical neurons of 18 days old embryonic rats were plated in poly-l-lysine coated 96-well plates (30.000 cells per well). Cells were maintained in neurobasal medium supplemented with B-27 component for 5 days at 37° C. in a humidified 5% CO2 atmosphere. At day 5, cells were subjected to oxygen glucose deprivation (OGD) for 2 hours at 37° C. The cultures were placed in an aerobic chamber (Billops-Rothenberg) and incubated in neurobasal medium lacking glucose and B27 factor, and aerated with an anaerobic gas mixture (94.7% N2, 5% CO2, 0.3% O2) to remove residual oxygen. Control cultures were kept in the original neurobasal medium but were submitted to the anaerobic conditions. At the end of the OGD conditions, the cells were removed from the anaerobic chamber, the OGD medium was replaced with neurobasal medium containing glucose, and the cells were incubated for an additional 24 h. The test compounds were added to the neurons eighteen hours prior to the OGD induction and maintained for 1 h. Replicate cultures were treated as described above with MK801 as positive control of neuroprotection.
Compound neuroprotective potential was determined by HCS analysis, which included the following endpoints: plasma membrane integrity, cell viability, alterations of mitochondrial membrane potential, caspase 3/7 activation and neurite outgrowth.
(§1) To determine the integrity of the plasma membrane, supernatants were collected 24 h after treatments and LDH assay was performed following manufacturer's instructions.
(§2) Cell number was determined by hoechst 33342 nucleic acid staining. This dye allows a sensitive cell number determination by fluorescence microscopy. Cells were stained with 5 μg/ml, washed 3 times and measured at 380 nm/460 nm Ex/Em.
Mitochondrial activity was determined using TMRM, a lipophilic cationic fluorescent probe that freely crosses the plasma membrane and accumulates within mitochondria, depending on their membrane potential. Cells were stained with 50 nM tetramethyl rhodamine methyl ester-TMRM, washed 3 times and measured at 555 nm/645 nm Ex/Em. TMRM fluorescence intensity in cytosolic regions around the nucleus was registered. […]

Data set [6] has as its system mouse cardiomyocytes. The class given is cell-based. Particulars: NAC 100 μM. How it is done:
In vitro ischemic injury was induced in mouse neonatal primary cardiomyocyte culture by oxygen-glucose deprivation for 18 hours. Cardiomyocytes were incubated with two concentrations of the compounds during 4 hours prior to the OGD induction. The test compounds were also present during the OGD insult and 24 h-recovery period. NAC was used as positive control of cardioprotection. After treatments, cell viability was measured with WST-8 and ATP, and supernatants were collected to measure LDH for studying plasma membrane integrity. Cells were simultaneously loaded with two fluorescent dyes showing optical compatibility, and were then analyzed with BD Pathway 855 (Becton Dickinson). By using the technology of HCS, cell parameters associated with nuclear morphology and caspase 3/7 activation (indicative of pre-lethal cytotoxic effects and representative of different mechanism of toxicity) were measured at the single cells level, which allows high-throughput screening. Data were expressed as means±SD of three separate wells and individual comparisons were made with Student's test (SigmaPlot 9.0 program).
Primary cultures of cardiomyocytes were prepared from the hearts of Swiss mouse neonates P0-P2. Hearts were removed and enzymatically dissociated following instructions from Neonatal heart Dissociation Kit of Miltenyi Biotec. Then cardiomyocytes were isolated following also the instructions of Miltenyi biotec. Briefly, cells were isolated by depletion of non-target cells. Non-target cells (fibroblasts and endothelial cells) are directly magnetically labeled with a cocktail of monoclonal antibodies conjugated with MACS microbeads. The magnetically labeled non-target cells were depleted by retaining them within an MCS column in the magnetic fields of a MACS separator, while the unlabeled cardiomyocytes passed through the column. Then, cardiomyocytes were counted and plated on fibronectin-coated wells with cardiac myocyte complete medium (1% CMGS component, 1% penicillin/streplomycina and 5% FBS).
Cardiomyocytes from P0-P2 days mice were plated in fibronectin coated 96-well plates with a number of 30.000 cells per well. Cells were maintained in cardiac myocyte complete medium (Cardiac myocyte medium, growth factors, 5% FBS, 1% penicillin/streptomycin) for 1 day at 37° C. in a humidified 5% CO2 atmosphere. At day 2, cells were washed and treated with compounds in complete medium 4 h prior to being subjected to oxygen glucose deprivation for 18 hours at 37° C. The cultures were placed in an aerobic chamber (Billops-Rothenberg) and incubated with DMEM medium lacking glucose and growth factors, and aerated with an anaerobic gas mix (94.7% N2, 5% CO2, 0.3% O2) to remove residual oxygen. Control cells were kept in the original cardiac myocyte medium but under anaerobic conditions. At the end of the OGD insult the cells were removed from the anaerobic chamber, the OGD medium was replaced with cardiac myocyte medium containing glucose without growth factors, and the cells were incubated for additional 24 h. The test compounds were also present during the OGD insult and the recovery period. Some cells were treated as described above with NAC 100 μM as positive control of cardioprotection.
as §1, §2
Caspase 3/7 activation was determined using The CellEvent® Caspase-3n Green Detection Reagent which is intrinsically a non-fluorescent peptide that inhibits the ability of the dye to bind to DNA. However, after […] activation in apoptotic cells, the peptide is cleaved allowing the dye to bind to DNA producing a bright, fluorogenic response. […]

Where [7] appears, read: Examples 10, 11, 12.5-800 μg/mL, procedure of Example 9.
Where [8] appears, read: entire study duration, of 192 animal days.

≈ marks a conversion by molar mass, not a printed value. Where two headings read alike, the source gives them in different places.

Consider `CN(C)C(=N)N=C(N)N` [Metformin], for which the “effect on proliferation/survival of H2O2-induced oxidatively stressed HGEPp cells” value (from here on “effect on proliferation/survival”) in data set [1] (setting [7]) was “little or no impact”.

In the case of `COc1ccc2cc3[n+](cc2c1OC)CCc1cc2c(cc1-3)OCO2` [Berberine], in data set [1] (setting [7]), the “effect on proliferation/survival” value was “little or no impact”.

Turning to `Cc1c(-c2cnccn2)ssc1=S` [Neat oltipraz, 4-methyl-5-(pyrazin-2-yl)-3H-1,2-dithiole-3-thione], the “effect on ROS levels in H2O2 treated HGEPp cells” value in data set [2] (Example 7, 100 ug/ml and 200 ug/ml, 24 h pretreatment, P<0.05 versus PC) is given as “significantly reduced ROS levels”. In addition, in data set [1] (Example 7, 50 to 800 μg/ml, 24 h pretreatment, then 0.3 mM H2O2 4 h), the “effect on H2O2-induced decrease in HGEPp survival” value is “promoted cell proliferation and reduced H2O2-induced decrease in HGEPp survival”. In data set [3] (40 Gy Day 0, 5 mg/mL, 0.2 mL topical BID, Days −3 to 28), the “day of peak mean mucositis score” value turned out to be 16 days. Also, the “peak mean mucositis score” value in data set [3] (40 Gy Day 0, 5 mg/mL, 0.2 mL topical to left cheek pouch BID, Days −3 to 28) was 3.25±0.11. The “Percent Ulceration by Day (Score ≥3)” value was 0.0% in data set [3] (Day 6); 0.0% in data set [3] (Day 8); 0.0% in data set [3] (Day 10); 50.0% in data set [3] (Day 12); 100.0% in data set [3] (Day 14); 100.0% in data set [3] (Day 16). Also, the “Percent Ulceration by Day (Score ≥3)” value in data set [3] (Day 18) is reported as 100.0%; in data set [3] (Day 20) it was 100.0%; in data set [3] (Day 22) it was 100.0%; in data set [3] (Day 24), 50.0%; in data set [3] (Day 26), 25.0%; in data set [3] (Day 28) it was 25.0%. In addition, the “% Days ≥3” value in data set [3] (entire study duration) came out at 54.17%. Moreover, the “Days <3 (animal days with mucositis score <3)” value in data set [3] (setting [8]) is 88. Further, the “Days ≥3 (animal days with mucositis score ≥3)” value in data set [3] (setting [8]) came out at 104. Also, the solubility (commonly the concentration that dissolves in the medium under given conditions) in data set [4] (2% simulated intestinal fluid, fassgf or other biorelevant) was 15.8 µg/mL (≈ 69.8 µM); in data set [4] (water), 3.1 µg/mL (≈ 13.7 µM).

For `O=C1C(O)=C([C@H]2CC[C@H](c3ccc(Cl)cc3)CC2)C(=O)c2ccccc21` [Atovaquone, trans-2-[4-(4-chlorophenyl)cyclohexyl]-3-hydroxy-1,4-naphthalenedione], the “effect on ROS levels in H2O2 challenged HGEPp cells” value in data set [2] (Example 9, 50, 100, 200 μg/mL, 24 hr pretreatment) is “does not change ROS levels”. Moreover, the “effect on proliferation/survival” value in data set [1] (Example 9, all doses tested 12.5-800 μg/mL (each), 24 hr pretreatment, 0.3 mM H2O2 4 h) was “no impact”.

Regarding `C[C@]12N[C@H](Cc3ccccc31)c1ccccc12` [MK801], the “normalization of plasma membrane integrity (LDH release)” value in data set [5] amounted to 33%. In data set [5] (24 h after OGD), the “prevention of OGD-induced apoptosis (caspase 3/7 activation)” value came to 25% and the “prevention of OGD-induced mortality (cell number, hoechst 33342)” value is 26%. The “re-establishment of mitochondrial membrane potential (TMRM)” value in data set [5] (24 hours post-exposure) was 13%. Moreover, the “re-establishment of neurite outgrowth affected by OGD” value in data set [5] (average length, beta III tubulin) turned out to be 94%. In addition, in data set [5] (Table 16), the CASPASE score is on record as 1 (1 (variation 20-40%)), the “HOECHST score (cell number)” value was 1 (1 (variation 20-40%)), the LDH score is on record as 1 (1 (variation 20-40%)) and the Neurite score was 3 (3 (variation 60-100%)). In data set [5] (Table 16), the Neuroprotection degree entry is given as “moderate (moderate (5-7))”, the TMRM score is 0 (0 (no neuroprotection or variation lower than 20%)) and the “Total (sum of individual scores)” value came out at 6.

Regarding `CC(=O)N[C@@H](CS)C(=O)O` [NAC], in data set [6], the “normalization of OGD-induced LDH release” value came to 26%, the “prevention of OGD-induced apoptosis (caspase 3/7)” value is 31% and the “protection against OGD-induced reduction in ATP levels” value amounted to 21%. For the same molecule, the “prevention of OGD-induced mortality (cell number)” value in data set [6] (24 h after exposure) is 21%. For the same molecule, in data set [6] (Table 18), the ATP score is reported as 1 (1 (variation 20-40%)), the CASPASE score is 1 (1 (variation 20-40%)), the “HOECHST score (cell number)” value is listed as 1 (1 (variation 20-40%)) and the LDH score was 1 (1 (variation 20-40%)). Moreover, in data set [6] (Table 18), the Neuroprotection degree entry was “Moderate” and the “Total (sum of individual scores)” value came out at 4.

For `OO` [H2O2, hydrogen peroxide], the “reduction in cell number” value in data set [1] (0.3 mM H2O2, 4 h) is on record as 48%.
